Assay results published in patent US10851102B2, “Imidazole and triazole containing bicyclic compounds as JAK inhibitors” (THERAVANCE BIOPHARMA R&D IP, LLC, priority 2019, dated 2020).

How the values were obtained:
[1] = Colon and plasma mouse pharmacokinetics; type: in vivo; conditions: ratio of colon AUC to plasma AUC, male Balb/c mice, 10 mg/kg PO; for Kp: mouse
Experimental: Assay 6: Colon and Plasma Mouse Pharmacokinetics
6 male Balb/c mice were administered 10 mg/kg of compound in 1% HPMC+0.1% Tween-80 by PO administration. At 0.5, 2 and 6 hours after dose administration, animals were anesthetized, and terminal blood samples were collected by cardiac puncture, followed by collection of colon contents and colon tissue.
Blood samples were collected into K2EDTA and stored on wet ice until processed to plasma by centrifugation (12,000 rpm at 4° C.). Plasma samples were transferred to cluster tubes and placed on dry ice prior to freezer storage. The colon contents from each animal were collected at each terminal blood collection time point. The colon tissues were flushed with saline and patted dry. The colon and colon content tissues were homogenized using sterile water containing 0.1% formic acid 9:1 (water:tissue, v/w). The homogenized tissues and colon contents were transferred to cluster tubes and placed on dry ice prior to freezer storage. All samples were analyzed using LC/MS/MS against analytical standards.
The composite pharmacokinetic parameters of the compounds were determined by non-compartmental analysis using Phoenix WinNonlin Version 6 (Certara, St. Louis, Mo.) and using mean values from 2 animals/time point. For plasma concentrations below the quantification limit (BQL), the lowest concentration measurable or the BLOQ (below limit of quantification) was used.
A colon to plasma ratio was determined as the ratio of the colon AUC to the plasma AUC.

[2] = target: JAK1 (Homo sapiens (Human), UniProt P23458); assay: Biochemical JAK and Tyk2 kinase assays (LanthaScreen): JAK1; conditions: 1 h pre-incubation, ATP at Km; pIC50 converted to pKi by Cheng-Prusoff
Summary of the method: (§1)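 LanthaScreen format using GST-tagged JAK enzymes, 1 h compound preincubation and 1 h ATP-initiated reaction at ambient temperature, in pH 7.5 HEPES buffer with 1% DMSO. Values are Cheng-Prusoff pKi.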

[3] = target: Tyk2 (Homo sapiens (Human), UniProt P29597); assay: Biochemical JAK and Tyk2 kinase assays (LanthaScreen): Tyk2; conditions: 1 h pre-incubation, ATP at Km; pIC50 converted to pKi by Cheng-Prusoff
Summary of the method: as §1

[4] = target: JAK2 (Homo sapiens (Human), UniProt O60674); assay: Biochemical JAK and Tyk2 kinase assays (LanthaScreen): JAK2; conditions: 1 h pre-incubation, ATP at Km, pIC50 converted to pKi by Cheng-Prusoff; for Ki: read-out: JAK 2 (pKi) (converted)
Summary of the method: as §1

[5] = system: Caco-2 cell monolayers; assay: Caco-2 permeation assay; type: in vitro ADME, human; conditions: for Caco Kp 10^−6 cm/sec: 5 μM, A to B, + Verapamil 25 μM, 120 minutes
Description: Assay 5: Caco-2 Permeation Assay

[6] = system: IL-2 stimulated pSTAT5 in Tall-1 T cells (JAK3); assay: Cellular JAK3 potency assay: inhibition of IL-2 stimulated pSTAT5 in Tall-1 T cells; type: cell-based; conditions: IL-2 300 ng/ml, pSTAT5 AlphaLisa, Tall-1 human T cell line; read-out: Tall-1 (pIC50) (converted)
Summary of the method: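 Human Tall-1 T cells (45,000/well) preincubated with compound 1 h at 37 °C, then stimulated with IL-2 (final 300 ng/ml) for 30 min. Lysates read for pSTAT5 (Tyr694/699) by AlphaLISA luminescence. IC50 from signal-versus-concentration curves, reported as pIC50 (mean±SD).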

[7] = target: JAK3 (Homo sapiens (Human), UniProt P52333); assay: Biochemical JAK and Tyk2 kinase assays (LanthaScreen): JAK3; conditions: for JAK 3 (pKi) / Ki: 1 h pre-incubation, ATP at Km, pIC50 converted to pKi by Cheng-Prusoff; for JAK3 (pKi)-JAK1 (pKi): difference of pKi values, selectivity JAK3 over JAK1; for Ki: read-out: JAK 3 (pKi) (converted)
Summary of the method: as §1

[8] = system: IL-2 stimulated pSTAT5 in CD4+ T cells isolated from murine splenocytes (JAK3); assay: Inhibition of IL-2 stimulated pSTAT5 in CD4+ T cells isolated from murine splenocytes; type: cell-based; conditions: Mus musculus, IL-2 7 ng/ml, read-out: pIC50, inhibition of IL-2 stimulated pSTAT5 (converted)
Experimental: Assay 3: Inhibition of IL-2 Stimulated pSTAT5 in CD4+ T Cells Isolated from Murine Splenocytes
The potency of test compounds for inhibition of interleukin-2 (IL-2) stimulated STATS phosphorylation was measured in the CD4+ T cells isolated from murine splenocytes using AlphaLisa. Because IL-2 signals through JAK3, this assay provides a measure of JAK3 cellular potency in mouse.
Phosphorylated STATS was measured via the AlphaLISA SureFire Ultra pSTAT5 (Tyr694/699) kit (PerkinElmer).
CD4+ T cells were isolated from murine splenocytes via negative selection on a magnetic column (Miltnyi Biotec) and re-suspended in assay media (phenol red-free DMEM (Life Technologies) supplemented with 10% FBS (ATCC)). Cells were seeded at 50,000 cells/well in assay media (2 μL/well). Compounds were serially diluted in DMSO and diluted to 2× final concentration in assay media. Compound was added (4 μl/well) and the cells incubated at 37° C., 5% CO2 for 1 hour, followed by the addition of IL-2 (R&D Systems; final concentration 7 ng/ml) in pre-warmed assay media (2 μL) for 30 minutes. After cytokine stimulation, cells were lysed with 2 μl of 5× AlphaLisa Lysis Buffer (PerkinElmer). The lysate was shaken at 900 rpm for 10 minutes at room temperature (RT). Phosphorylated STATS was measured via the pSTAT5 AlphaLisa kit (PerkinElmer). Freshly prepared acceptor bead mixture was dispensed onto lysate (5 ul) under green filtered <100 lux light. Plates were shaken at 900 rpm for 2 mins, briefly spun down, and incubated for 2 hrs at RT in the dark. Donor beads were dispensed (5 μl) under green filtered <100 lux light. Plates were shaken at 900 rpm for 2 mins, briefly spun down, and incubated overnight at RT in the dark. Luminescence was measured with excitation at 689 nm and emission at 570 nm using an EnVision plate reader (PerkinElmer) under green filtered <100 lux light.
To determine the inhibitory potency of test compounds in response to IL-2, the average emission intensity of beads bound to pSTATS was measured in primary CD4+ T cells isolated from murine splenocytes. IC50 values were determined from analysis of the inhibition curves of signal intensity vs compound concentration. Data are expressed as pIC50 (negative decadic logarithm IC50) values (mean±standard deviation).

Chain of JAK1 (P23458 whole entry): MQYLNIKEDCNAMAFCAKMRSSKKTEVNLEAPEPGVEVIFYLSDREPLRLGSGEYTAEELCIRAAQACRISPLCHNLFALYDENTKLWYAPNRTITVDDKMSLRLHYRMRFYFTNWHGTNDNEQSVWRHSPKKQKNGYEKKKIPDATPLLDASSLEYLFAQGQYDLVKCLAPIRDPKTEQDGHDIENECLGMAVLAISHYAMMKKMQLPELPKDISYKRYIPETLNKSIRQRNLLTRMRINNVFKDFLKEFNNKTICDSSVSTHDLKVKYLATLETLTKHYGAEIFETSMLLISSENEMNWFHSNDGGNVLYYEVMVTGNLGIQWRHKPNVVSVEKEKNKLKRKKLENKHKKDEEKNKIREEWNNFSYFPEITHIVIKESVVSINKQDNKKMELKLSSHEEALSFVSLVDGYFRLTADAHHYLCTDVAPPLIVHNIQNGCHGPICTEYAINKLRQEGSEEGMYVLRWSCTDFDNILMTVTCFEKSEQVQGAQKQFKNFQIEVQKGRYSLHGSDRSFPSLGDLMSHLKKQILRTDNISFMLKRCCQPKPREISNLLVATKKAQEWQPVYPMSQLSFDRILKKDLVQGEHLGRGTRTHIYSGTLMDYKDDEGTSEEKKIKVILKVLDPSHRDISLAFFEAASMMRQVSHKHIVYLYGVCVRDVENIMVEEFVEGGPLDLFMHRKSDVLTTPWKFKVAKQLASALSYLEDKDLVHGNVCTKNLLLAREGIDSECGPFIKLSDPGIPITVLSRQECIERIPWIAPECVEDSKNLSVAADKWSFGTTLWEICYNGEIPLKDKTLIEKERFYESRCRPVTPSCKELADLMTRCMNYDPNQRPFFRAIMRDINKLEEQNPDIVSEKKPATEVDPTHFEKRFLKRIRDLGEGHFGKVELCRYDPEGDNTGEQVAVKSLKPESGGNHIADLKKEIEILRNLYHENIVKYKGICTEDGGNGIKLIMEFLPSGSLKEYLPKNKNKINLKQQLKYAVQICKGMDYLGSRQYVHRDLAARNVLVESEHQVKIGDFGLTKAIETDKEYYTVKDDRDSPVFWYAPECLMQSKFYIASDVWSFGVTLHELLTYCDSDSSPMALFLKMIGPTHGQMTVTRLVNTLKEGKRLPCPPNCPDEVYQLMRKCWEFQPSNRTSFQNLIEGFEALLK
Chain of Tyk2 (P29597 whole entry): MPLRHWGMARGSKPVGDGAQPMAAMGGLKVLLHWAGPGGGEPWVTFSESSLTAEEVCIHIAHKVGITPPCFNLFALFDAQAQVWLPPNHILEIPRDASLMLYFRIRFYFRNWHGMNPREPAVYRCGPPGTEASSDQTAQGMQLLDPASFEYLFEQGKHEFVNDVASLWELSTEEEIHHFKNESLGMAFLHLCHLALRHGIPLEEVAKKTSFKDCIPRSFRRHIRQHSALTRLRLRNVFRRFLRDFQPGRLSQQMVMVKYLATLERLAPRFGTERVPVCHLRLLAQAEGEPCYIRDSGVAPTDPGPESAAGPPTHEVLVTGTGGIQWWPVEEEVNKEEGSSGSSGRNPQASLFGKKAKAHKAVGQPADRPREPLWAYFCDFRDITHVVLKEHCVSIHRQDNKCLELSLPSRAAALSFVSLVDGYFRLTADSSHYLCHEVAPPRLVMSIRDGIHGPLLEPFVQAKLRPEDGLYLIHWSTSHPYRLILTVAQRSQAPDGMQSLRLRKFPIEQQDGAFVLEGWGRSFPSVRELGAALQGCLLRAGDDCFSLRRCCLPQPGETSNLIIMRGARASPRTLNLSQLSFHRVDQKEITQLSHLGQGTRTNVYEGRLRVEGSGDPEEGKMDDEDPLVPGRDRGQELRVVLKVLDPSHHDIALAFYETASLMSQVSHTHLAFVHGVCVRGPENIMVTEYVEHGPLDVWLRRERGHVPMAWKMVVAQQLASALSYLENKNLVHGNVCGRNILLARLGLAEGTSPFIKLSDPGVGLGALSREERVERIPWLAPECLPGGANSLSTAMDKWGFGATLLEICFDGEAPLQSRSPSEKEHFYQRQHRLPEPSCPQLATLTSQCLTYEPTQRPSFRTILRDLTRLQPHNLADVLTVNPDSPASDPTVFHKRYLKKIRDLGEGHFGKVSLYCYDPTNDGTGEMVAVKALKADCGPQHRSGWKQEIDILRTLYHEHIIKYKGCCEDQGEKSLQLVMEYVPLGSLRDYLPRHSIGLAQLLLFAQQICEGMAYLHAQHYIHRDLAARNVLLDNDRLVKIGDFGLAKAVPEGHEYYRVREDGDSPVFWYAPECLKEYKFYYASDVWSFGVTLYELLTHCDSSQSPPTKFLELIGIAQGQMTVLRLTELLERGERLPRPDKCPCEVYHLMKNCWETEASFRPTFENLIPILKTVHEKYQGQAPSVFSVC
Chain of JAK2 (O60674 whole entry): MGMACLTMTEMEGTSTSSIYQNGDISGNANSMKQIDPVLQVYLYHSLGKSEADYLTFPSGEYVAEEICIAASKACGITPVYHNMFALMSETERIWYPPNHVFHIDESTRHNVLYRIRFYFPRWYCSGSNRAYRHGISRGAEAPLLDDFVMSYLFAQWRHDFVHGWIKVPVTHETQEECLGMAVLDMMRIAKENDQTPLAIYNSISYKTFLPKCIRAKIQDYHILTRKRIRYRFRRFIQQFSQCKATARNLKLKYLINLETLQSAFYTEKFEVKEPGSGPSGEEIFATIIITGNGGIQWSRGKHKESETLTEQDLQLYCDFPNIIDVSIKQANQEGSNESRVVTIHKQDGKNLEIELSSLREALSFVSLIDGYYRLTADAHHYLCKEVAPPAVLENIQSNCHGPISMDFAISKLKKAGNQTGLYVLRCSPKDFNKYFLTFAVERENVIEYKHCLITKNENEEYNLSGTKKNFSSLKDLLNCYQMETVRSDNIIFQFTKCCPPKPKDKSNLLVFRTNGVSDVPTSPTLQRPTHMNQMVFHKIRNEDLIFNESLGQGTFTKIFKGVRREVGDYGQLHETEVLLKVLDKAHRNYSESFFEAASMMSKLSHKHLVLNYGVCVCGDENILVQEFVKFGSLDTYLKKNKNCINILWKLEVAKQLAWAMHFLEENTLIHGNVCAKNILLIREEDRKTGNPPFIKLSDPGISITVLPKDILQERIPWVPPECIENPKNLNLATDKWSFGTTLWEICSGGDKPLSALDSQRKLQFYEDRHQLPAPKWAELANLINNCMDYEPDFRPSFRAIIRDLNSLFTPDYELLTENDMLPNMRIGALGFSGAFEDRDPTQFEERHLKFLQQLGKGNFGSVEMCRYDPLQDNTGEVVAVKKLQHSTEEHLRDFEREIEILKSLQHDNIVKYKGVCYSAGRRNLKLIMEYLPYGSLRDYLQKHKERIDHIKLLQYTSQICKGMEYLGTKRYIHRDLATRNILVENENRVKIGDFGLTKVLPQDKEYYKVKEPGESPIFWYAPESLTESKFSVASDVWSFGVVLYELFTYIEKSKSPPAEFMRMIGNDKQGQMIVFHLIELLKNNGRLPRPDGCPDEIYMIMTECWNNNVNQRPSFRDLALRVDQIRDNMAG
Chain of JAK3 (P52333 whole entry): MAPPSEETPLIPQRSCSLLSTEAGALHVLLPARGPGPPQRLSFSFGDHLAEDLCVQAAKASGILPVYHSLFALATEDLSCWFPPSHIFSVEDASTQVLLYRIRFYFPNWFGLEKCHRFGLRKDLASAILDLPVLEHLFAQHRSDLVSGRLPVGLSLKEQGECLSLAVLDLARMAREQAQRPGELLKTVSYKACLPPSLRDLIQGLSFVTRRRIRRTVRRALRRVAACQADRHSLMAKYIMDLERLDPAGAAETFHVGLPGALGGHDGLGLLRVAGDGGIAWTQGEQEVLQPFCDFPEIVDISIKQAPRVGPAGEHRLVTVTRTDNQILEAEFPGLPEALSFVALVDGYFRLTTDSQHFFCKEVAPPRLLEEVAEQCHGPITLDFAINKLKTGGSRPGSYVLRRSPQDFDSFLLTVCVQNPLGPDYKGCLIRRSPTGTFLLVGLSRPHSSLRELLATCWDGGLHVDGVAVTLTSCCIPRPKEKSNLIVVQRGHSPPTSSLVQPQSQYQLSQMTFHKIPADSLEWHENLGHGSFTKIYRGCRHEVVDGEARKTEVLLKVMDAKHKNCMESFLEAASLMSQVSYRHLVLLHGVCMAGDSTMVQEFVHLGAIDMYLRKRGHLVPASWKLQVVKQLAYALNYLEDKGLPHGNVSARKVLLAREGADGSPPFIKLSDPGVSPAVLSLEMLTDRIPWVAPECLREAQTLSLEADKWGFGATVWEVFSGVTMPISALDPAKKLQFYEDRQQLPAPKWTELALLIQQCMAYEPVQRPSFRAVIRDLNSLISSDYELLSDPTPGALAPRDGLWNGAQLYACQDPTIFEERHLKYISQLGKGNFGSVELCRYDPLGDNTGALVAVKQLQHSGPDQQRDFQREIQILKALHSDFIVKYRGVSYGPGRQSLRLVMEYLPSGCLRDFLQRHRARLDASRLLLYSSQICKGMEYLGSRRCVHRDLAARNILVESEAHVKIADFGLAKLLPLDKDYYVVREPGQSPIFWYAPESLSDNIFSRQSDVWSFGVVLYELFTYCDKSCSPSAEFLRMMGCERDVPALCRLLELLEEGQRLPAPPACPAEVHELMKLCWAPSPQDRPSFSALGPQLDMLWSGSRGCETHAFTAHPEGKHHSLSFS

Row | Compound | Kp [1] | JAK 1 (pKi) [2] | Tyk 2 (pKi) [3] | JAK 2 (pKi) [4] | Caco Kp 10^−6 cm/sec [5] | IC50 [6] [nM] | JAK 3 (pKi) [7] | JAK3 (pKi)-JAK1 (pKi) [7] | IC50 [8] [nM] | Ki [4] [nM] | colon to plasma ratio [1] | Kp value ([5]; A to B + Verapamil, unit not given, thresholds in same block in 10^−6 cm/sec) | Ki [2] [nM] | Ki [7] [nM]
1 | C=CC(=O)N1CCC(Oc2cc(-c3ccc(O)cc3)cn3cncc23)CC1 [Example 30] | > 8 | E (E represents a pKi value of 7 or below (Ki of 100 nM or above)) | E (E represents a pKi value of 7 or below (Ki of 100 nM or above)) | E (E represents a pKi value of 7 or below (Ki of 100 nM or above)) | C (C represents a value between 10×10^−6 and 25×10^−6 cm/sec) | 31.6 to 200 | A (A represents a pKi value≥10 (Ki≤0.1 nM)) | A (A represents a value of 3 or above) |  |  |  |  |  | 
2 | C=CC(=O)N1CC[C@@H](Oc2cc(-c3ccc(O)cc3)cn3cncc23)C[C@H]1C [Example 15, 1-((2R,4R)-4-((6-(4-hydroxyphenyl)imidazo[1,5-a]pyridin-8-yl)oxy)-2-methylpiperidin-1-yl)prop-2-en-1-one] | > 30 | E (E represents a pKi value of 7 or below (Ki of 100 nM or above)) | E (E represents a pKi value of 7 or below (Ki of 100 nM or above)) |  |  | ≤ 31.6 | A (A represents a pKi value≥10 (Ki≤0.1 nM)) | A (A represents a value of 3 or above) | < 1000 | 10 to 100 |  |  |  | 
3 | C=CC(=O)N1C[C@H](Nc2ncnc3[nH]ccc23)CC[C@@H]1C [PF-06651600, 2-propen-1-one, 1-[(2S,5R)-2-methyl-5-(7H-pyrrolo[2,3-d]pyrimidin-4-ylamino)-1-piperidinyl], reference compound] |  |  |  |  |  |  |  |  |  |  | 2.8 | 25 |  | 
4 | CCc1cc(O)c(F)cc1-c1cc(OCC2CN(C(=O)/C=C/CN(C)C)C2)c2cncn2c1 [Example 24] | > 200 | E (E represents a pKi value of 7 or below (Ki of 100 nM or above)) | E (E represents a pKi value of 7 or below (Ki of 100 nM or above)) | E (E represents a pKi value of 7 or below (Ki of 100 nM or above)) | A (A represents a value below 5×10^−6 cm/sec) | 31.6 to 200 | A (A represents a pKi value≥10 (Ki≤0.1 nM)) | A (A represents a value of 3 or above) | < 1000 |  |  |  |  | 
5 | C=CC(=O)N1CCC[C@H](Oc2cc(-c3cc(F)c(O)cc3CC)cn3cncc23)C1 [Example 16] | > 200 |  | E (E represents a pKi value of 7 or below (Ki of 100 nM or above)) |  | C (C represents a value between 10×10^−6 and 25×10^−6 cm/sec) | 31.6 to 200 |  | B (B represents a value of 2.3 to 3) |  | 10 to 100 |  |  | 10 to 100 | 0.1 to 1
6 | C=CC(=O)N1CC(COc2cc(-c3ccc(O)cc3)cn3cncc23)C1 [Example 11, 1-(3-(((6-(4-hydroxyphenyl)imidazo[1,5-a]pyridin-8-yl)oxy)methyl)azetidin-1-yl)prop-2-en-1-one] |  | E (E represents a pKi value of 7 or below (Ki of 100 nM or above)) | E (E represents a pKi value of 7 or below (Ki of 100 nM or above)) | E (E represents a pKi value of 7 or below (Ki of 100 nM or above)) | A (A represents a value below 5×10^−6 cm/sec) | 31.6 to 200 |  | A (A represents a value of 3 or above) | < 1000 |  |  |  |  | 0.1 to 1
